Measured values from US20090156577A1, “7-AMINO ALKYLIDENYL-HETEROCYCLIC QUINOLONES AND NAPHTHYRIDONES” (priority 2004, published 2009).
In brackets after ≈: the same amount, converted by molar mass. Where a name gives a salt, the structure may show the parent alone. Read-outs that look alike come from different tables or passages of the source.

Tested on: pathogenic bacteria
Assay: MIC by microdilution broth method (NCCLS M7-A4), in vitro antibacterial activity
Assay type: cell-based
In short: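 MIC read after 35 °C incubation for 16–20 h relative to drug-free growth wells. Cation-adjusted Mueller-Hinton broth with two-fold compound dilutions, organisms at roughly 5×10^4 CFU/well final. Method follows NCCLS document M7-A4.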

[1] = Staphylococcus aureus, Organism A: Staphylococcus aureus OC4172, read-out: MIC
[2] = Streptococcus pneumoniae, ATCC49619, Organism E: Streptococcus pneumoniae ATCC 49619, read-out: MIC
[3] = Streptococcus pneumoniae, Organism B: fluoroquinolone-resistant clinical isolate of Streptococcus pneumoniae (QRDR amino acid substitutions)
[4] = Streptococcus pneumoniae, Organism C: fluoroquinolone-resistant clinical isolate of Streptococcus pneumoniae (QRDR amino acid substitutions)
[5] = Staphylococcus aureus, Organism A: Staphylococcus aureus OC4172
[6] = Streptococcus pneumoniae, ATCC49619, Organism E: Streptococcus pneumoniae ATCC 49619
[7] = Streptococcus pneumoniae, Organism D: fluoroquinolone-resistant clinical isolate of Streptococcus pneumoniae (QRDR amino acid substitutions)
[8] = Organism A: Staphylococcus aureus OC4172
[9] = Organism B: fluoroquinolone-resistant clinical isolate of Streptococcus pneumoniae (QRDR amino acid substitutions)

SMILES | MIC [1] | MIC [2] | MIC [3] | MIC [4] | MIC [5] | MIC [6] | MIC [7] | MIC [8] | MIC [9] | MIC (Organism C: fluoroquinolone-resistant clinical isolate of Streptococcus pneumoniae (QRDR amino acid substitutions)) | MIC (Organism D: fluoroquinolone-resistant clinical isolate of Streptococcus pneumoniae (QRDR amino acid substitutions)) | MIC (Organism E: Streptococcus pneumoniae ATCC 49619)
NCC(F)=C1CN(c2c(F)cc3c(=O)c(C(=O)O)cn(-c4nc(N)c(F)cc4F)c3c2Cl)C1 [Compound 269, 1-(6-Amino-3,5-difluoro-pyridin-2-yl)-7-[3-(2-amino-1-fluoro-ethylidene)-azetidin-1-yl]-8-chloro-6-fluoro-4-oxo-1,4-dihydro-quinoline-3-carboxylic acid] | ≤ 0.015 µg/mL | 0.03 µg/mL (≈ 0.062 µM) | 0.25 µg/mL (≈ 0.517 µM) | 0.06 µg/mL (≈ 0.124 µM) | – | – | – | – | – | – | – | –
CN(C)CC(Cl)=C1CCN(c2cc3c(cc2F)c(=O)c(C(=O)O)cn3C2CC2)CC1 [Compound 298, 7-[4-(1-Chloro-2-dimethylamino-ethylidene)-piperidin-1-yl]-1-cyclopropyl-6-fluoro-4-oxo-1,4-dihydro-quinoline-3-carboxylic Acid Trifluoroacetic Acid Salt] | – | – | 16 µg/mL | 16 µg/mL | 0.25 µg/mL | 1 µg/mL | 8 µg/mL | – | – | – | – | –
CNCC(Cl)=C1CCN(c2c(F)cc3c(=O)c(C(=O)O)cn(C4CC4)c3c2O)CC1.Cl [Compound 267, 7-[4-(1-Chloro-2-methylamino-ethylidene)-piperidin-1-yl]-1-cyclopropyl-6-fluoro-8-hydroxy-4-oxo-1,4-dihydro-quinoline-3-carboxylic Acid Hydrochloride Salt] | 0.12 µg/mL | 0.5 µg/mL | 2 µg/mL | 2 µg/mL | – | – | 2 µg/mL | – | – | – | – | –
NCC=C1CN(c2c(F)cc3c(=O)c(C(=O)O)cn(-c4nc(N)c(F)cc4F)c3c2Cl)C1 [Compound 420, 1-(6-Amino-3,5-difluoro-pyridin-2-yl)-7-[3-(2-amino-ethylidene)-azetidin-1-yl]-8-chloro-6-fluoro-4-oxo-1,4-dihydro-quinoline-3-carboxylic acid] | ≤ 0.015 µg/mL | 0.12 µg/mL (≈ 0.258 µM) | – | 1 µg/mL (≈ 2.15 µM) | – | – | 0.5 µg/mL (≈ 1.07 µM) | – | – | – | – | –
CNCC(Cl)=C1CCN(c2nc3c(cc2F)c(=O)c(C(=O)O)cn3C2CC2)CC1 [Compound 215, 7-[4-(1-Chloro-2-methylamino-ethylidene)-piperidin-1-yl]-1-cyclopropyl-6-fluoro-4-oxo-1,4-dihydro-[1,8]naphthyridine-3-carboxylic acid] | – | 0.25 µg/mL (≈ 0.594 µM) | – | 2 µg/mL (≈ 4.75 µM) | – | – | 2 µg/mL (≈ 4.75 µM) | 0.25 µg/mL (≈ 0.594 µM) | 2 µg/mL (≈ 4.75 µM) | – | – | –
Cc1c(F)c(N2CCC/C(=C(/F)CN)C2)cc2c1c(=O)c(C(=O)O)cn2C1CC1 [Compound 425, (Z)-7-[3-(2-Amino-1-fluoro-ethylidene)-piperidin-1-yl]-1-cyclopropyl-6-fluoro-5-methyl-4-oxo-1,4-dihydro-quinoline-3-carboxylic acid] | 0.06 µg/mL (≈ 0.149 µM) | 1 µg/mL (≈ 2.48 µM) | 4 µg/mL (≈ 9.92 µM) | 16 µg/mL (≈ 39.7 µM) | – | – | 8 µg/mL (≈ 19.8 µM) | – | – | – | – | –
C[C@H]1CN(c2nc3c(cc2F)c(=O)c(C(=O)O)cn3C2CC2)C/C(=C(/F)CN)CO1 [Compound 499, (Z)-7-[6-(2-Amino-1-fluoro-ethylidene)-(2S)-2-methyl-[1,4]oxazepan-4-yl]-1-cyclopropyl-6-fluoro-4-oxo-1,4-dihydro-[1,8]naphthyridine-3-carboxylic acid] | 8 µg/mL (≈ 19 µM) | > 16 µg/mL | > 16 µg/mL | > 16 µg/mL | – | – | > 16 µg/mL | – | – | – | – | –
Nc1nc(-n2cc(C(=O)O)c(=O)c3cc(F)c(N4CCC/C(=C(\F)CO)C4)c(Cl)c32)c(F)cc1F [Compound 415, (E)-1-(6-Amino-3,5-difluoro-pyridin-2-yl)-8-chloro-6-fluoro-7-[3-(1-fluoro-2-hydroxy-ethylidene)-piperidin-1-yl]-4-oxo-1,4-dihydro-quinoline-3-carboxylic acid] | 0.12 µg/mL (≈ 0.234 µM) | 4 µg/mL (≈ 7.8 µM) | – | > 16 µg/mL | – | – | > 16 µg/mL | – | – | – | – | –
CN(CC(F)=C1CCN(c2c(F)cc3c(=O)c(C(=O)O)cn(C4CC4)c3c2OC(F)F)CC1)Cc1ccccc1 [Compound 207, 7-{4-[2-(Benzyl-methyl-amino)-1-fluoro-ethylidene]-piperidin-1-yl}-1-cyclopropyl-8-difluoromethoxy-6-fluoro-4-oxo-1,4-dihydro-quinoline-3-carboxylic acid] | 1 µg/mL (≈ 1.79 µM) | 4 µg/mL (≈ 7.15 µM) | 8 µg/mL (≈ 14.3 µM) | 8 µg/mL (≈ 14.3 µM) | – | – | 2 µg/mL (≈ 3.57 µM) | – | – | – | – | –
CC(CN)=C1CCN(c2nc3c(cc2F)c(=O)c(C(=O)O)cn3C2CC2)CC1O (stereo not shown) [Compound 62, 7-[4-(2-Amino-1-methyl-ethylidene)-3-hydroxy-piperidin-1-yl]-1-cyclopropyl-6-fluoro-4-oxo-1,4-dihydro-[1,8]naphthyridine-3-carboxylic acid] | 2 µg/mL (≈ 4.97 µM) | 8 µg/mL (≈ 19.9 µM) | > 16 µg/mL | > 16 µg/mL | – | – | – | – | – | – | – | –
COc1c(N2CC(=C(F)CN)C2)c(F)cc2c(=O)c(C(=O)O)cn(C3CC3)c12 [Compound 273, 7-[3-(2-amino-1-fluoro-ethylidene)-azetidin-1-yl]-1-cyclopropyl-6-fluoro-8-methoxy-4-oxo-1,4-dihydro-quinoline-3-carboxylic acid] | 0.03 µg/mL (≈ 0.0767 µM) | 4 µg/mL (≈ 10.2 µM) | 4 µg/mL (≈ 10.2 µM) | 0.5 µg/mL (≈ 1.28 µM) | – | – | – | – | – | – | – | –
CN(C)CC(F)=C1CCN(c2cc3c(cc2F)c(=O)c(C(=O)O)cn3C2CC2)CC1 [Compound 299, 1-Cyclopropyl-7-[4-(2-dimethylamino-1-fluoro-ethylidene)-piperidin-1-yl]-6-fluoro-4-oxo-1,4-dihydro-quinoline-3-carboxylic acid] | 0.5 µg/mL (≈ 1.2 µM) | 1 µg/mL (≈ 2.4 µM) | 16 µg/mL (≈ 38.3 µM) | > 16 µg/mL | – | – | 2 µg/mL (≈ 4.79 µM) | – | – | – | – | –
COc1c(N2CCC(=C(F)CN)CC2)c(F)cc2c(=O)c(C(=O)O)cn(C3CC3)c12 [Compound 12, (E)-7-[4-(2-Amino-1-fluoro-ethylidene)-piperidin-1-yl]-1-cyclopropyl-7-6-fluoro-8-methoxy-4-oxo-1,4-dihydro-quinoline-3-carboxylic acid] | – | – | – | – | – | – | – | 0.12 µg/mL (≈ 0.286 µM) | 2 µg/mL (≈ 4.77 µM) | 4 µg/mL (≈ 9.54 µM) | 4 µg/mL (≈ 9.54 µM) | 0.5 µg/mL (≈ 1.19 µM)
NC/C(F)=C1/CCCN(c2nc3c(cc2F)c(=O)c(C(=O)O)cn3C2CC2)C1 [Compound 253, (E)-7-[3-(2-Amino-1-fluoro-ethylidene)-piperidin-1-yl]-1-cyclopropyl-6-fluoro-4-oxo-1,4-dihydro-[1,8]naphthyridine-3-carboxylic acid trifluoroacetic acid salt] | – | – | 4 µg/mL | > 16 µg/mL | 0.06 µg/mL | 0.5 µg/mL | 4 µg/mL | – | – | – | – | –
COc1c(N2CCC/C(=C\CN)C2)c(F)cc2c(=O)c(C(=O)O)cn(C3CC3)c12 [Compound 390, (E)-7-[3-(2-Amino-ethylidene)-piperidin-1-yl]-1-cyclopropyl-6-fluoro-8-methoxy-4-oxo-1,4-dihydro-quinoline-3-carboxylic acid] | 0.06 µg/mL (≈ 0.149 µM) | 0.5 µg/mL (≈ 1.25 µM) | – | 2 µg/mL (≈ 4.98 µM) | – | – | 4 µg/mL (≈ 9.96 µM) | – | – | – | – | –
Cc1c(F)c(N2CCC/C(=C(/Cl)CN)C2)cc2c1c(=O)c(C(=O)O)cn2C1CC1 [Compound 452, (Z)-7-[3-(2-Amino-1-chloro-ethylidene)-piperidin-1-yl]-1-cyclopropyl-6-fluoro-5-methyl-4-oxo-1,4-dihydro-quinoline-3-carboxylic acid] | 0.5 µg/mL (≈ 1.19 µM) | 4 µg/mL (≈ 9.53 µM) | – | 4 µg/mL (≈ 9.53 µM) | – | – | > 16 µg/mL | – | – | – | – | –
CC(CN)=C1CCN(c2c(F)cc3c(=O)c(C(=O)O)cn4c3c2OCC4C)CC1 (stereo not shown) [Compound 9, 9-[4-(2-Amino-1-methyl-ethylidene)-piperidin-1-yl]-8-fluoro-3-methyl-6-oxo-2,3-dihydro-6H-1-oxa-3a-aza-phenalene-5-carboxylic acid] | 0.5 µg/mL (≈ 1.25 µM) | 1 µg/mL (≈ 2.49 µM) | 4 µg/mL (≈ 9.96 µM) | > 16 µg/mL | – | – | > 16 µg/mL | – | – | – | – | –
CN(C)CC(F)=C1CCN(c2nc3c(cc2F)c(=O)c(C(=O)O)cn3C2CC2)CC1 [Compound 182, 1-Cyclopropyl-7-[4-(2-dimethylamino-1-fluoro-ethylidene)-piperidin-1-yl]-6-fluoro-4-oxo-1,4-dihydro-[1,8]naphthyridine-3-carboxylic acid] | 0.06 µg/mL (≈ 0.143 µM) | 0.25 µg/mL (≈ 0.597 µM) | – | 1 µg/mL (≈ 2.39 µM) | – | – | 2 µg/mL (≈ 4.78 µM) | – | – | – | – | –
COc1c(N2CCC/C(=C(\Cl)CN)C2)c(F)cc2c(=O)c(C(=O)O)cn([C@@H]3C[C@@H]3F)c12 [Compound 407, (E)-7-[3-(2-Amino-1-chloro-ethylidene)-piperidin-1-yl]-6-fluoro-(1R,2S)-1-(2-fluoro-cyclopropyl)-8-methoxy-4-oxo-1,4-dihydro-quinoline-3-carboxylic acid] | ≤ 0.015 µg/mL | 0.03 µg/mL (≈ 0.0661 µM) | 0.03 µg/mL (≈ 0.0661 µM) | 0.25 µg/mL (≈ 0.551 µM) | – | – | 0.12 µg/mL (≈ 0.264 µM) | – | – | – | – | –
COc1c(N2CCC(=C(Cl)CN3CCCCC3)CC2)c(F)cc2c(=O)c(C(=O)O)cn(C3CC3)c12 [Compound 194, 7-[4-(1-Chloro-2-piperidin-1-yl-ethylidene)-piperidin-1-yl]-1-cyclopropyl-6-fluoro-8-methoxy-4-oxo-1,4-dihydro-quinoline-3-carboxylic acid] | 0.12 µg/mL (≈ 0.238 µM) | 0.5 µg/mL (≈ 0.992 µM) | 2 µg/mL (≈ 3.97 µM) | 4 µg/mL (≈ 7.94 µM) | – | – | 1 µg/mL (≈ 1.98 µM) | – | – | – | – | –
COc1c(N2CCC/C(=C(\Cl)CN)C2)c(F)cc2c(=O)c(C(=O)O)cn(C3CC3)c12 [Compound 261, (E)-7-[3-(2-Amino-1-chloro-ethylidene)-piperidin-1-yl]-1-cyclopropyl-6-fluoro-8-methoxy-4-oxo-1,4-dihydro-quinoline-3-carboxylic Acid Trifluoroacetic Acid Salt] | – | – | 0.06 µg/mL | 0.06 µg/mL | ≤ 0.015 µg/mL | ≤ 0.015 µg/mL | 0.06 µg/mL | – | – | – | – | –
